Measured values taken from patent US20260055096A1, “AZOLE PESTICIDAL COMPOUNDS” (BASF SE, priority 2022, published 2026).

How the values were obtained:
Type in all cases: in vivo
[1] = system: yellow fever mosquito (Aedes aegypti); assay: whole plant or invertebrate; details: 48 h, larval mortality after 2 days, read-out: mortality in comparison with untreated controls
Experimental: For evaluating control of yellow fever mosquito (Aedes aegypti) the test unit consisted of 96-well-microtiter plates containing 200 μl of tap water per well and 5-15 freshly hatched A. aegypti larvae.
The active compounds or mixtures were formulated using a solution containing 75% (v/v) water and 25% (v/v) DMSO. Different concentrations of formulated compounds or mixtures were sprayed onto the insect diet at 2.5 μl, using a custom-built micro atomizer, at two replications.
For experimental mixtures in these tests identical volumes of both mixing partners at the desired concentrations respectively, were mixed together.
After application, microtiter plates were incubated at 28 #1° C., 80 #5% RH for 2 days. Larval mortality was then visually assessed.

[2] = system: Orchid thrips (Dichromothrips corbetti); assay: Example B.2: Action on orchid thrips (Dichromothrips corbetti), floral-immersion technique; details: 72 hours after treatment, read-out: mortality in comparison with untreated controls
Experimental: Dichromothrips corbetti adults used for bioassay were obtained from a colony maintained continuously under laboratory conditions. For testing purposes, the test compound is diluted in a 1:1 mixture of acetone:water (vol:vol), plus Kinetic® HV at a rate of 0.01% v/v.
Thrips potency of each compound was evaluated by using a floral-immersion technique. All petals of individual, intact orchid flowers were dipped into treatment solution and allowed to dryin Petri dishes. Treated petals were placed into individual re-sealable plastic along with about 20 adult thrips. All test arenas were held under continuous light and a temperature of about 28° C. for duration of the assay. After 3 days, the numbers of live thrips were counted on each petal. The percent mortality was recorded 72 hours after treatment.

[3] = system: boll weevil (Anthonomus grandis); assay: Example B.3: Action on boll weevil (Anthonomus grandis), egg and larval mortality on insect diet; details: 120 h, egg and larval mortality after 5 days, read-out: mortality in comparison with untreated controls
Experimental: For evaluating control of boll weevil (Anthonomus grandis) the test unit consisted of 96-well-microtiter plates containing an insect diet and 5-10 A. grandis eggs.
The compounds were formulated using a solution containing 75% (v/v) water and 25% (v/v) DMSO. Different concentrations of formulated compounds were sprayed onto the insect diet at […], using a custom-built micro atomizer, at two replications.
After application, microtiter plates were incubated at about 25±1C and about 75±5% relative humidity for 5 days. Egg and larval mortality were then visually assessed.

[4] = system: Silverleaf whitefly (Bemisia argentifolii) (adults); assay: Example B.4: Action on silverleaf whitefly (Bemisia argentifolii) adults on sprayed cotton plants; details: 72 h, 3 days after treatment, read-out: mortality in comparison with untreated controls
Experimental: (§1) The active compounds were formulated by a Tecan liquid handler in 100% cyclohexanone as a 10,000-ppm solution supplied in tubes. The 10,000-ppm solution was serially diluted in 100% cyclohexanone to make interim solutions. These served as stock solutions for which final dilutions were made by the Tecan in 50% acetone:50% water (v/v) into 5 or 10 ml glass vials. A nonionic surfactant (Kinetic®) was included in the solution at a volume of 0.01% (v/v). The vials were then inserted into an automated electrostatic sprayer equipped with an atomizing nozzle for application to plants/insects.
Cotton plants at the cotyledon stage (one plant per pot) were sprayed by an automated electrostatic plant sprayer equipped with an atomizing spray nozzle. The plants were dried in the sprayer fume hood and then removed from the sprayer. Each pot was placed into a plastic cup and about 10 to 12 whitefly adults (approximately 3-5 days old) were introduced. The insects were collected using an aspirator and a nontoxic Tygon® tubing connected to a barrier pipette tip. The tip, containing the collected insects, was then gently inserted into the soil containing the treated plant, allowing insects to crawl out of the tip to reach the foliage for feeding. Cups were covered with a reusable screened lid. […] Mortality was assessed 3 days after treatment, compared to untreated control plants.

[5] = system: tobacco budworm (Heliothis virescens); assay: Example B.5: Action on tobacco budworm (Heliothis virescens), egg and larval mortality on insect diet; details: 120 h, egg and larval mortality after 5 days, read-out: mortality in comparison with untreated controls
Experimental: For evaluating control of tobacco budworm (Heliothis virescens) the test unit consisted of 96-well-microtiter plates containing an insect diet and 15-25 H. virescens eggs.
The compounds were formulated using a solution containing 75% v/v water and 25% v/v DMSO. Different concentrations of formulated compounds were sprayed onto the insect diet at 10 μl, using a custom-built micro atomizer, at two replications.
After application, microtiter plates were incubated at about 28±1C and about 80±5% relative humidity for 5 days. Egg and larval mortality were then visually assessed.

[6] = system: Diamond back moth (Plutella xylostella); assay: Example B.6: Action on diamond back moth (Plutella xylostella), cabbage leaf dip, 3rd instar larvae; details: foliar, 72 hours after treatment, read-out: mortality in comparison with untreated controls
Experimental: The active compound is dissolved at the desired concentration in a mixture of 1:1 (v/v) distilled water: acetone. Surfactant (Kinetic® HV) is added at a rate of 0.01% (v/v). The test solution is prepared at the day of use.
Leaves of cabbage were dipped in test solution and air-dried. Treated leaves were placed in petri dishes lined with moist filter paper and inoculated with ten 3rd instar larvae. Mortality was recorded 72 hours after treatment. Feeding damages were also recorded using a scale of 0-100%.

[7] = system: Southern armyworm (Spodoptera eridania), 2nd instar larvae; assay: Example B.7: Action on southern armyworm (Spodoptera eridania), 2nd instar larvae on sprayed lima bean plants; details: 96 h, 4 days after treatment, read-out: mortality in comparison with untreated controls
Experimental: as §1, with “into 10” for “into 5”, “or 20” for “or 10”
Lima bean plants (variety Sieva) were grown 2 plants to a pot and selected for treatment at the 1st true leaf stage. Test solutions were sprayed onto the foliage by an automated electrostatic plant sprayer equipped with an atomizing spray nozzle. The plants were dried in the sprayer fume hood and then removed from the sprayer. Each pot was placed into perforated plastic bags with a zip closure. About 10 to 11 armyworm larvae were placed into the bag and the bags zipped closed. Test plants were maintained in a growth room at about 25° C. and about 20-40% relative humidity for 4 days, avoiding direct exposure to fluorescent light (24-hour photoperiod) to prevent trapping of heat inside the bags. Mortality and reduced feeding were assessed 4 days after treatment, compared to untreated control plants.

Structure (SMILES): Cc1ccc(C(C)C)c(N2C(=O)CS/C2=N\C(=O)Nc2ccc(-c3nc(NC(=O)c4ccc(OC(F)(F)F)cc4)n(C)n3)cc2Cl)c1 [Example C-6, N-[5-[3-chloro-4-[[(Z)-[3-(2-isopropyl-5-methyl-phenyl)-4-oxo-thiazolidin-2-ylidene]carbamoyl]amino]phenyl]-2-methyl-1,2,4-triazol-3-yl]-4-(trifluoromethoxy)benzamide]
- mortality at 800 ppm [1]: ≥ 50%
- mortality at 300 ppm [2]: ≥ 75%
- mortality at 800 ppm [3]: ≥ 75%
- mortality at 300 ppm [4]: ≥ 75%
- mortality at 800 ppm [5]: ≥ 75%
- mortality at 300 ppm [6]: ≥ 75%
- mortality at 300 ppm [7]: ≥ 75%
